The values below come from ChEMBL document CHEMBL4130365, “An overview of benzo[b]thiophene-based medicinal chemistry” (Eur J Med Chem, 2017).

Usually IC50 stands for the concentration that inhibits the measured activity by half.

Experiment [1] has as its target Gamma-aminobutyric acid receptor subunit alpha-5 (Homo sapiens, UniProt P31644). The experiment can be described thus: Antagonist activity at human GABA-A alpha5 receptor expressed in HEK293 cell membranes assessed as inhibition of GABA-induced response preincubated for 40 mins followed by GABA addition by FLIPR assay. The experiment is classed as cell-based.
Experiment [2] has as its target Gamma-aminobutyric acid receptor subunit alpha-1 (Homo sapiens, UniProt P14867). The experiment can be described thus: Antagonist activity at human GABA-A alpha1 receptor expressed in HEK293 cell membranes assessed as inhibition of GABA-induced response preincubated for 40 mins followed by GABA addition by FLIPR assay. The format is cell-based.

Gamma-aminobutyric acid receptor subunit alpha-1, sequence (P14867 whole entry): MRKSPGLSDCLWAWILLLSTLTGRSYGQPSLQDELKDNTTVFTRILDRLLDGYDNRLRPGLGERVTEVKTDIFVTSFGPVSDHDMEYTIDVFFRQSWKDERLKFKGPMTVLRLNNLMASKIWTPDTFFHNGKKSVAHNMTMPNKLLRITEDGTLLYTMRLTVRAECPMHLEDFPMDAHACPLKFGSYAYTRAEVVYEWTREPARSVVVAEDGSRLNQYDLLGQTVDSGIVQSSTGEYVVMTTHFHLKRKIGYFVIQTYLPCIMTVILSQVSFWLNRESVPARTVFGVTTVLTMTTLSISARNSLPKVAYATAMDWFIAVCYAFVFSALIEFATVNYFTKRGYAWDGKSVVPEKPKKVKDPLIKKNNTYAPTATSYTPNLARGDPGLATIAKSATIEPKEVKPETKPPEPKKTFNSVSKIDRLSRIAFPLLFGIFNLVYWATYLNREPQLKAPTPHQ
Gamma-aminobutyric acid receptor subunit alpha-5, sequence (P31644 whole entry): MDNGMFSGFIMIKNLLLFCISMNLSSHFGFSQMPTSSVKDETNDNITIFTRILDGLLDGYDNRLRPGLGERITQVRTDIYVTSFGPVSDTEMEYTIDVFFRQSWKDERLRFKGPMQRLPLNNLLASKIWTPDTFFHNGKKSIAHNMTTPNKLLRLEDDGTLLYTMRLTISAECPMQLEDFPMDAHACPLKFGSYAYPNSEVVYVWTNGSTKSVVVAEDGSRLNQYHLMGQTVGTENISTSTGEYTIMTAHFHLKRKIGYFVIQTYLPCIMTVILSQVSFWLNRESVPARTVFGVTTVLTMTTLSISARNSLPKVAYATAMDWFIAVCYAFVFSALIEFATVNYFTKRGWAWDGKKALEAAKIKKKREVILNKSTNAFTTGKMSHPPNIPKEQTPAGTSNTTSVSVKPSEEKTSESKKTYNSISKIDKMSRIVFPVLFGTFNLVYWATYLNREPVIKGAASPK

In the case of `CC1=NN=C(c2cc3c(C(F)(F)F)cccc3s2)c2cc3oc(=O)[nH]c3cc2C1`, the IC50 in experiment [1] turned out to be 201 nM; in experiment [2] it was 479 nM.
